In US4350697A, “Antidepressant and neuroleptic benzothiopyrano [2,3-c]-pyridines” (Roussel Uclaf, priority 1980, dated 1982):
Counter-ions that a name gives are not always drawn.

Experiments:
[1] = system: hypothermia induced by apomorphine; test: Reversal of apomorphine hypothermia in mice (test E); type: in vivo; details: Mus musculus, ip; male CD/l mice, test drug i.p. 30 minutes before apomorphine hydrochloride 16 mg/kg s.c.; rectal temperature 30 minutes later; read-out: ED50 for the reversal of the hypothermia induced by apomorphine HCl in mice (test E)
Method: D. Reversal of apomorphine hypothermia in mice
Whereas the reversal of the hypothermia induced in mice by low doses of apomorphine is a characteristic of classical neuroleptic agents, the hypothermia induced by high doses of this agent is specifically reversed by antidepressant drugs [Puech et al., In `Advances in Pharmacology and Therapeutics Vol., 5` ed. Dumont, c. Pergamon p. 171-176 (1979)]. Groups of 10 male CD/l mice (16-22 g) were dosed with vehicle or test drug intraperitoneally 30 minutes prior to the subcutaneously injection of apomorphine hydrochloride at 16 mg/kg. The rectal temperatures were recorded 30 minutes later using a rectal thermometer with digital readout.

[2] = target: neuroleptic receptors (frontal cortex membranes, major serotonergic component); test: [3H] spiroperidol receptor binding displacement on frontal cortex membranes (test A); details: [3H] spiroperidol 0.19 nM, rat frontal cortex membranes, 37° C., 10 minutes
From the text: A. [^3 H] Spiroperidol binding to neuroleptic receptors in membranes prepared from the striatum and frontal cortex of rats
The binding of [^3 H] spiroperidol to frontal cortex membranes appears to entail a major serotonergic component, whereas in striatal membranes the binding is predominantly dopaminergic [Leysen et al, Nature Vol. 272 (1978) p. 168-171] The ability of drugs to displace this radioligand from the frontal cortical receptors matches their activity in other models of serotonergic function, both for agonists and antagonists. Likewise, in striatal membranes, such activities predict the antidopaminergic action of neuroleptic drugs.
[Phenyl-4(n)-^3 H] spiroperidol (Radiochemical Centre, TRK 570 21 Ci/mmol was used as the labelled ligand supplied as a 250 μCi/250 μl solution in ethanol and this solution was diluted 3.2/10,000 in assay buffer and 0.1 ml of this was added to 2 ml of binding assay.
=0.19 nM [^3 H] spiroperidol
The assay buffer was a modified 50 mM Tris HCl buffer with a pH of 7.6 and containing 120 mM of sodium chloride, 5 mM of potassium chloride, 1 mM of magnesium chloride, 2 mM of calcium chloride, 10 μM of pargyline and 0.1% of ascorbic acid.
The membrane preparation involved dissecting the frontal cortices or striata from 4 male CFHB rats according to J. Glowinski et al [Eur. J. Pharmacol., Vol. 49, (1978), P. 201-202]. The frontal cortex was taken as that cortical tissue in `C`, dorsal to a horizontal reference line passing through the point where the olfactory bulbs join the frontal cortex. The animals were killed by cervical dislocation and the dissected tissue was homogenized in 20 volumes of ice cold 0.32 M sucrose with a Teflon/glass homogeniser. The homogenate was centrifuged at 1000 g for 10 minutes and the resulting supernatant was recentrifuged at 30,000 g for 30 minutes. The supernatant was discarded and the pellet was resuspended by homogenization in 30 volumes of ice cold assay buffer.
Non-specific binding was accounted for by the inclusion of 1 μM (+) butaclamol in blank binding assays and this required a stock solution of 20 μM in distilled water. Solutions of displacing compounds were prepared at 20x final assay concentration in distilled water.
Binding assays of 1.3 ml assay buffer, 0.5 ml membrane suspension, 0.1 ml distilled H2 O or drug solutions and 0.1 ml [^3 H] spiroperidol dilution were made up in ice with the [^3 H] spiroperidol being added last and incubated at 37° C. for 10 minutes. The bound ligand was separated by filtration through Whatman GF/C filters under vacuum followed by 2×10 ml rinses of ice cold assay buffer. The filters were dried at 80° C. and counted in 5 ml volumes of ECONOFLUOR (NEN). All binding assays, controls, blanks and each displacer concentration were run in triplicate. The [^3 H] spiroperidol receptor binding displacement results on frontal cortex membranes (test A) and on striatal membranes (test B) are given in Table III below and the results are expressed as IC50 (nM).

[3] = target: Muscarinic chloinergic receptor; type: binding; details: [3H] QNB 0.3 nM, rat forebrain membranes, 25° C., 1 hour; read-out: IC50 test D
α-noradrenergic receptor = test: [3H] WB-4101 receptor binding displacement, rat cortical membranes (test C); details: [3H] WB-4101 0.25 nM, 25° C., 15 minutes

Structure (SMILES) | ED50 [1] [mg/kg] | IC50 [2] [nM] | IC50 [3] [nM] | IC50 (α-noradrenergic receptor) [nM]
CN1CCC2=C(c3ccccc3)c3ccccc3SC2C1.Cl (stereo not drawn) [Example 1, 2-methyl-5-phenyl-1,3,4,10a-tetrahydro-2H-[1]-benzothiopyrano[2,3-c]pyridine hydrochloride] | 30 | 250 | 14000 | 394
CN1CCC2=C(c3ccccc3)c3cccc(Cl)c3SC2C1 (stereo not drawn) [Example 20] | – | 304 | 67800 | 1050
Cc1ccc(C2=C3CCN(C)CC3Sc3ccccc32)c(C)c1 (stereo not drawn) [Example 19, 2-methyl-5-(2,4-dimethylphenyl)-1,3,4,10a-tetrahydro-2H-[1]benzothiopyrano[2,3-c]pyridine hydrochloride] | – | 32 | 42700 | 23
COc1ccc(C2=C3CCN(C)CC3Sc3ccccc32)cc1 (stereo not drawn) [Example 4] | 15 | 131 | 62000 | 120
Cc1cccc(C2=C3CCN(C)CC3Sc3ccccc32)c1 (stereo not drawn) [Example 7] | > 40 | 251 | 8710 | 813
CN1CCC2=C(c3ccc(N)cc3)c3ccccc3SC2C1.Cl (stereo not drawn) [Example 15, 5-(4-aminophenyl)-2-methyl-1,3,4,10a-tetrahydro-2H-[1]benzothiopyrano[2,3-c]pyridine hydrochloride] | 5 | 158 | 7940 | 372
CN1CCC2=C(c3ccc(Cl)cc3)c3ccccc3SC2C1 (stereo not drawn) [Example 2] | > 40 | 602 | > 100000 | 692
Cc1ccc(C2=C3CCN(C)CC3Sc3ccccc32)cc1C (stereo not drawn) [Example 14] | 30 | 155 | > 100000 | 502
CCc1ccc(C2=C3CCN(C)CC3Sc3ccccc32)cc1 (stereo not drawn) [Example 9] | > 40 | 50 | > 100000 | 59
CN1CCC2=C(c3ccc(Cl)c(Cl)c3)c3ccccc3SC2C1 (stereo not drawn) [Example 8] | – | 537 | > 100000 | 631
Cc1cc(C)c(C2=C3CCN(C)CC3Sc3ccccc32)c(C)c1 (stereo not drawn) [Example 24] | > 40 | 308 | 1180 | 617
c1ccc(C2=C3CCNCC3Sc3ccccc32)cc1 (stereo not drawn) [Example 17] | 35 | 624 | 19500 | 676
